Reference: US20150087004A1, “Microfabricated 3D Cell Culture System” (The Trustees of the University of Pennsylvania, priority 2012, published 2015)

Tested on: Human umbilical vein endothelial cells (HUVECs)
Test: Pro-angiogenic factor screening: directed invasion and sprouting from endothelialized parent vessel in 3D cell culture device
Assay type: cell-based
Conditions: for EC invasion into the matrix (single cell or collective cell invasion): factor added individually to source channel, over four days, 75 ng/mL (S1P 500 nM); for mode of cell migration / sprouting response: factor or cocktail in source channel, gradient across collagen matrix
Description: Examination the processes of angiogenic invasion and sprouting from an existing vessel in accordance with the disclosed subject matter will be described, with reference to FIG. 11A-D through FIG. 14A-F, for purpose of illustration and not limitation. Generally, a device in accordance with an embodiment of the disclosed subject matter can be prepared with an endothelium lining a cylindrical channel, surrounded by matrix, and exposed to a gradient of angiogenic factors emanating from a parallel source channel 150a. The device can be assembled by casting Type I collagen into a PDMS mold/gasket with two parallel needles held across the casting chamber. Upon collagen polymerization, the needles can be extracted to create hollow cylindrical channels in the collagen matrix 160. Endothelial cells (ECs) can be injected into one of the channels, allowing them to attach on the interior wall and form a confluent endothelium or “parent vessel” 150a. Flow can be maintained through both channels and media containing angiogenic factors can subsequently be added to the second channel to establish a gradient across the collagen matrix to the endothelium, as illustrated in FIG. 11B.
In a first example, the impact of various pro-angiogenic factors on directed invasion and sprouting from the parent vessel is examined. Six common factors associated with angiogenesis in the literature were selected: basic fibroblast growth factor (bFGF), hepatocyte growth factor (HGF), vascular endothelial growth factor (VEGF), monocyte chemotactic protein-1 (MCP-1), sphingosine-1-phosphate (S1P), and phorbol 12-myristate 13-acetate (PMA). After these factors were added individually to the non-endothelialized source channel, phase-contrast and confocal microscopy were used to assess the organization and development of EC invasion over four days.
In connection with the examples described herein, an exemplary device in accordance with the disclosed subject matter was fabricated from two patterned layers of poly(dimethylsiloxane) (PDMS; Sylgard 184; Dow-Corning) bonded to each other and sealed against a glass substrate (e.g., as depicted in FIG. 11A). The two PDMS layers were cast or double-cast from templates originally generated using standard photolithography of SU-8 on silicon wafers. To assemble the device, the bottom layer was first sealed to a glass coverslip. The top and bottom layers were then treated with oxygen plasma, bonded together, and cured at 110° C. overnight. Assembled devices then were treated with oxygen plasma, immersed in 0.1 mg/ml poly-L-lysine (Sigma) for 1 hr, 1% glutaraldehyde (Sigma) for 1.5 hr, washed several times with ddH2O, sterilized with UV light for 15 min, and soaked in 70% ethanol for 1 hr. To mold cylindrical channels, two 400 μm diameter acupuncture needles (Hwato) were inserted into parallel grooves at the top of the bottom layer and through the middle rectangular chamber approximately 200 μm above the glass coverslip surface. Rat tail collagen type I (2.5 mg/ml; BD Biosciences) was pipetted into the middle chamber and allowed to polymerize at 37° C. for 30 min. Excess collagen was subsequently aspirated from the fluid reservoirs feeding from the middle chamber. Devices were then covered with EGM-2 (Lonza) before the needles were extracted as described herein.
Cells were cultured and seeded in accordance with the disclosed subject matter into the device described in connection with the first example. Human umbilical vein endothelial cells (HUVECs) (Lonza) and human microvascular endothelial cells (HMVECs) (Lonza) were cultured in EGM-2 and EGM-2MV, respectively.

Molecule | EC invasion into the matrix (single cell or collective cell invasion) | mode of cell migration / sprouting response
basic fibroblast growth factor [bFGF] | did not induce significant invasion | –
CCCCCCCCCCCCC/C=C/[C@@H](O)[C@@H](N)COP(=O)(O)O [S1P, sphingosine-1-phosphate] | substantial directed invasion | chemotactic migration primarily of single cells
vascular endothelial growth factor [VEGF] | did not induce significant invasion | –
hepatocyte growth factor [HGF] | did not induce significant invasion | –
monocyte chemotactic protein-1 [MCP-1] | did not induce significant invasion | –
CCCCCCCCCCCCCC(=O)O[C@@H]1[C@@H](C)[C@@]2(O)[C@@H](C=C(CO)C[C@]3(O)C(=O)C(C)=C[C@@H]23)[C@@H]2C(C)(C)[C@]12OC(C)=O [PMA, phorbol 12-myristate 13-acetate] | substantial directed invasion | collective cell migration that manifested itself in the form of sparse, long, multi-cellular sprouts
